Measured values taken from patent publication US10517889B2, “Modulators of SMAD7 expression” (Ionis Pharmaceuticals, Inc., priority 2017, dated 2019).
Strand notation (5' to 3'): a small letter for the sugar, then the base; units joined by * are phosphorothioate-linked, units joined directly phosphodiester-linked; [ ] holds rarer units or linkages, { } end groups; capitals alone tell only the bases. e = 2'-O-(2-methoxyethyl) (MOE); [5mC] = 5-methylcytosine; d = 2'-deoxy (DNA)

System: human SMAD7 mRNA
Assay: Antisense inhibition of human SMAD7 mRNA expression in Hep3B cells by 5-10-5 MOE gapmers, single concentration, electroporation, RT-PCR (Example 1, Study 1 and 2)
Assay type: cell-based
Conditions: Study 2, electroporation with 15,000 nM antisense oligonucleotide, 5-10-5 MOE gapmers targeting SEQ ID NO: 1 and 2
Outline: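 Readout is percent SMAD7 mRNA inhibition versus untreated cells, measured by qRT-PCR (RTS5062) and corrected for total RNA by RIBOGREEN. Oligonucleotide, 5,000 nM or 15,000 nM, was delivered by electroporation into Hep3B cells at 20,000 per well. RNA was collected about 24 h later.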

Row | Substance | % inhibition of SMAD7 mRNA expression [%] | % Inhibition [%]
1 | 771488 (antisense e[5mC]*eT*eG*eA*eT*d[5mC]*dT*dG*d[5mC]*dA*d[5mC]*dG*dG*dT*dA*eA*eA*eG*e[5mC]*e[5mC]) [compound 771488] | 53 | 
2 | 771692 (antisense e[5mC]*e[5mC]*e[5mC]*eA*eG*dG*dA*dG*dG*dG*dT*dA*dT*dG*d[5mC]*eA*e[5mC]*eA*e[5mC]*eT) [compound 771692] |  | 18
3 | 771463 (antisense eG*eG*e[5mC]*eT*e[5mC]*d[5mC]*dT*dG*dG*dA*d[5mC]*dA*d[5mC]*dA*dG*eT*eA*eG*eA*eG) [compound 771463] |  | 10
4 | 771771 (antisense e[5mC]*eA*eG*e[5mC]*eT*d[5mC]*d[5mC]*dT*dA*d[5mC]*dT*dG*dT*dT*dG*eG*e[5mC]*eA*eG*eT) [compound 771771] |  | 22
5 | 771694 (antisense e[5mC]*eT*e[5mC]*e[5mC]*e[5mC]*dA*dG*dG*dA*dG*dG*dG*dT*dA*dT*eG*e[5mC]*eA*e[5mC]*eA) [compound 771694] |  | 0
6 | 771875 (antisense e[5mC]*e[5mC]*e[5mC]*e[5mC]*eG*dT*dG*d[5mC]*dA*d[5mC]*dT*d[5mC]*d[5mC]*d[5mC]*dA*eG*e[5mC]*e[5mC]*e[5mC]*eT) [compound 771875] |  | 51
7 | 771527 (antisense eG*eA*eG*eT*eT*dT*dG*d[5mC]*dA*dT*dG*dA*dA*dA*dA*eG*e[5mC]*eA*eA*eG) [compound 771527] | 0 | 
8 | 771354 (antisense e[5mC]*eG*eG*e[5mC]*e[5mC]*dT*dT*d[5mC]*d[5mC]*dA*dT*d[5mC]*d[5mC]*dA*dA*e[5mC]*eT*e[5mC]*eT*e[5mC]) [compound 771354] |  | 39
9 | 771654 (antisense eA*eA*eA*e[5mC]*eA*dT*dG*d[5mC]*dT*d[5mC]*dA*dT*dT*dG*dA*eG*e[5mC]*eT*eA*eA) [compound 771654] | 32 | 
10 | 771471 (antisense eG*e[5mC]*eT*e[5mC]*e[5mC]*dG*d[5mC]*dA*d[5mC]*d[5mC]*dT*dT*d[5mC]*dT*dG*e[5mC]*eA*e[5mC]*e[5mC]*eA) [compound 771471] | 43 | 
11 | 771871 (antisense e[5mC]*eT*e[5mC]*e[5mC]*e[5mC]*dT*d[5mC]*dT*dG*d[5mC]*d[5mC]*d[5mC]*d[5mC]*dA*dG*eG*eA*eT*eT*e[5mC]) [compound 771871] |  | 15
12 | 771393 (antisense eG*e[5mC]*eT*e[5mC]*e[5mC]*dG*dG*d[5mC]*dT*dG*d[5mC]*d[5mC]*d[5mC]*d[5mC]*dA*e[5mC]*e[5mC]*e[5mC]*e[5mC]*eG) [compound 771393] |  | 0
13 | 771687 (antisense e[5mC]*eT*eT*eG*eT*dG*dT*dT*dT*dA*dT*d[5mC]*dT*dT*dT*eT*eT*eT*eA*eA) [compound 771687] | 13 | 
14 | 771743 (antisense eG*e[5mC]*e[5mC]*eA*eT*dA*d[5mC]*d[5mC]*dT*d[5mC]*d[5mC]*dA*dT*d[5mC]*dT*e[5mC]*eT*e[5mC]*eA*e[5mC]) [compound 771743] |  | 0
15 | 771423 (eG*e[5mC]*eA*eG*e[5mC]*dA*dT*d[5mC]*d[5mC]*dA*dG*d[5mC]*d[5mC]*d[5mC]*dT*eG*e[5mC]*e[5mC]*e[5mC]*eG; antisense) [compound 771423] |  | 39
16 | 771755 (antisense eA*eA*eA*e[5mC]*eA*dT*dT*dT*dG*dG*d[5mC]*dA*d[5mC]*d[5mC]*d[5mC]*eA*eA*e[5mC]*eA*e[5mC]) [compound 771755] |  | 35
17 | 771429 (eA*e[5mC]*e[5mC]*eT*eT*dT*dG*dG*d[5mC]*dA*d[5mC]*d[5mC]*dT*d[5mC]*dG*e[5mC]*eA*e[5mC]*e[5mC]*eG; antisense) [compound 771429] |  | 11
18 | 771700 (antisense eT*eA*eT*eG*e[5mC]*dA*d[5mC]*dA*d[5mC]*dT*d[5mC]*dT*d[5mC]*d[5mC]*d[5mC]*eA*eG*eG*eA*eG) [compound 771700] |  | 9
19 | 771763 (antisense e[5mC]*e[5mC]*e[5mC]*e[5mC]*eG*dT*d[5mC]*d[5mC]*dA*d[5mC]*dG*dG*dA*dA*d[5mC]*eG*eG*eA*eT*e[5mC]) [compound 771763] |  | 45
20 | 771703 (antisense eG*eG*eA*eG*eG*dG*dT*dA*dT*dG*d[5mC]*dA*d[5mC]*dA*d[5mC]*eT*e[5mC]*eT*e[5mC]*e[5mC]) [compound 771703] |  | 31
21 | 771440 (e[5mC]*eG*eG*e[5mC]*eT*dG*d[5mC]*dG*d[5mC]*dA*dG*dG*d[5mC]*dT*dG*e[5mC]*eG*e[5mC]*eG*e[5mC]; antisense) [compound 771440] |  | 48

Same assay, conditions: electroporation with 15,000 nM antisense oligonucleotide (Study 2), 5-10-5 MOE gapmers targeting SEQ ID NO: 1 and 2

Row | Substance | % Inhibition of SMAD7 mRNA [%] | % inhibition of SMAD7 mRNA expression [%]
22 | 771355 (antisense e[5mC]*eA*eG*eT*eT*d[5mC]*dG*dG*d[5mC]*d[5mC]*dT*dT*d[5mC]*d[5mC]*dA*eT*e[5mC]*e[5mC]*eA*eA) [compound 771355] | 13 | 
23 | 771497 (antisense eG*eA*eA*eG*eA*dT*dG*dA*d[5mC]*d[5mC]*dT*d[5mC]*dT*dA*dG*e[5mC]*e[5mC]*eA*eG*e[5mC]) [compound 771497] | 25 | 
24 | 771728 (antisense eA*eA*e[5mC]*eT*eT*dT*dT*d[5mC]*dT*d[5mC]*d[5mC]*d[5mC]*d[5mC]*d[5mC]*dT*eT*eG*eG*eA*eA) [compound 771728] | 7 | 
25 | 771688 (antisense e[5mC]*eG*eT*eT*eT*dA*dA*dT*dG*dG*dA*dA*d[5mC]*dA*dT*eA*eA*eA*e[5mC]*eT) [compound 771688] | 13 | 0
26 | 771568 (antisense e[5mC]*eT*eG*e[5mC]*eA*dA*dA*d[5mC]*d[5mC]*dT*d[5mC]*dT*d[5mC]*dT*dG*e[5mC]*eT*eG*eG*eG) [compound 771568] | 26 | 

Same assay, conditions: electroporation, 5,000 nM, approximately 24 hours, relative to untreated control cells, gapmers targeting SEQ ID NO: 1 and 2

Row | Substance | % inhibition of SMAD7 mRNA expression [%]
27 | 771771 (antisense e[5mC]*eA*eG*e[5mC]*eT*d[5mC]*d[5mC]*dT*dA*d[5mC]*dT*dG*dT*dT*dG*eG*e[5mC]*eA*eG*eT) [compound 771771] | 63
28 | 771875 (antisense e[5mC]*e[5mC]*e[5mC]*e[5mC]*eG*dT*dG*d[5mC]*dA*d[5mC]*dT*d[5mC]*d[5mC]*d[5mC]*dA*eG*e[5mC]*e[5mC]*e[5mC]*eT) [compound 771875] | 42
29 | 771755 (antisense eA*eA*eA*e[5mC]*eA*dT*dT*dT*dG*dG*d[5mC]*dA*d[5mC]*d[5mC]*d[5mC]*eA*eA*e[5mC]*eA*e[5mC]) [compound 771755] | 44
30 | 771763 (antisense e[5mC]*e[5mC]*e[5mC]*e[5mC]*eG*dT*d[5mC]*d[5mC]*dA*d[5mC]*dG*dG*dA*dA*d[5mC]*eG*eG*eA*eT*e[5mC]) [compound 771763] | 34

Same assay, conditions: electroporation, 15,000 nM antisense oligonucleotide (Study 2), 5-10-5 MOE gapmers targeting SEQ ID NO: 1 and 2

Row | Substance | % inhibition of SMAD7 mRNA expression [%]
31 | 771348 (antisense eG*eG*e[5mC]*e[5mC]*eA*d[5mC]*dG*dA*d[5mC]*dA*dG*dT*dA*dT*d[5mC]*eT*eG*eG*eG*e[5mC]) [compound 771348] | 42
32 | 771467 (antisense e[5mC]*eA*eT*eA*eG*dA*dA*dG*dA*dT*dA*dT*d[5mC]*d[5mC]*dA*eG*eA*eG*eA*eG) [compound 771467] | 11
33 | 771355 (antisense e[5mC]*eA*eG*eT*eT*d[5mC]*dG*dG*d[5mC]*d[5mC]*dT*dT*d[5mC]*d[5mC]*dA*eT*e[5mC]*e[5mC]*eA*eA) [compound 771355] | 0
34 | 771817 (antisense eG*eG*eA*eA*eT*dT*dA*dT*dG*dA*d[5mC]*dA*d[5mC]*dA*dG*eT*eA*eA*e[5mC]*eA) [compound 771817] | 19
35 | 771497 (antisense eG*eA*eA*eG*eA*dT*dG*dA*d[5mC]*d[5mC]*dT*d[5mC]*dT*dA*dG*e[5mC]*e[5mC]*eA*eG*e[5mC]) [compound 771497] | 0
36 | 771754 (antisense e[5mC]*e[5mC]*e[5mC]*eT*e[5mC]*dA*dG*dG*dT*dA*d[5mC]*dT*d[5mC]*dT*dG*e[5mC]*eA*e[5mC]*eA*eG) [compound 771754] | 45
37 | 771553 (antisense eT*eG*eG*eT*eG*d[5mC]*dT*dT*dG*dG*dA*dT*dT*dT*d[5mC]*eT*eG*e[5mC]*eT*eT) [compound 771553] | 38
38 | 771357 (antisense eG*eA*eG*eT*e[5mC]*dA*dG*dG*d[5mC]*dT*d[5mC]*dA*dA*dT*dG*eA*eG*eA*e[5mC]*eT) [compound 771357] | 16
39 | 771419 (eG*eG*e[5mC]*e[5mC]*eG*d[5mC]*d[5mC]*dG*d[5mC]*d[5mC]*dA*d[5mC]*d[5mC]*dG*dG*e[5mC]*e[5mC]*e[5mC]*e[5mC]*eA; antisense) [compound 771419] | 37
40 | 771585 (antisense eG*eA*eG*e[5mC]*e[5mC]*dG*dT*dG*d[5mC]*dT*d[5mC]*d[5mC]*dT*dG*dG*e[5mC]*eA*eG*e[5mC]*eT) [compound 771585] | 49
41 | 771728 (antisense eA*eA*e[5mC]*eT*eT*dT*dT*d[5mC]*dT*d[5mC]*d[5mC]*d[5mC]*d[5mC]*d[5mC]*dT*eT*eG*eG*eA*eA) [compound 771728] | 1
42 | 771809 (antisense eA*e[5mC]*e[5mC]*eT*eG*dA*dG*dT*d[5mC]*d[5mC]*d[5mC]*d[5mC]*d[5mC]*dA*dA*eA*eG*eT*e[5mC]*e[5mC]) [compound 771809] | 7
43 | 771530 (antisense eA*eA*eA*eA*eA*d[5mC]*dG*dA*d[5mC]*d[5mC]*dA*dA*dA*dG*dA*eG*eT*eT*eT*eG) [compound 771530] | 16
44 | 771953 (antisense eT*e[5mC]*eA*e[5mC]*e[5mC]*dA*dG*d[5mC]*dT*d[5mC]*dA*dT*d[5mC]*dT*d[5mC]*eT*e[5mC]*eA*eG*eG) [compound 771953] | 42
45 | 771568 (antisense e[5mC]*eT*eG*e[5mC]*eA*dA*dA*d[5mC]*d[5mC]*dT*d[5mC]*dT*d[5mC]*dT*dG*e[5mC]*eT*eG*eG*eG) [compound 771568] | 17

Same assay, conditions: electroporation, 15,000 nM, approximately 24 hours, gapmers targeting SEQ ID NO: 3 and 4

Row | Substance | % inhibition of SMAD7 mRNA expression [%]
46 | 771343 (antisense eG*eA*e[5mC]*eA*eG*dT*d[5mC]*dA*dG*dT*dT*dG*dG*dT*dT*eT*eG*eA*eG*eA) [compound 771343] | 0

Same assay, conditions: electroporation, 15,000 nM, approximately 24 hours, relative to untreated control cells, gapmers targeting SEQ ID NO: 1 and 2

Row | Substance | % inhibition of SMAD7 mRNA expression [%]
47 | 771685 (antisense e[5mC]*eT*eT*eT*eT*dT*dT*dA*dA*dT*dT*dT*dG*dG*d[5mC]*eA*eT*eT*eT*eG) [compound 771685] | 17
48 | 771701 (antisense eG*eG*eT*eA*eT*dG*d[5mC]*dA*d[5mC]*dA*d[5mC]*dT*d[5mC]*dT*d[5mC]*e[5mC]*e[5mC]*eA*eG*eG) [compound 771701] | 34
49 | 771376 (antisense eA*e[5mC]*eG*e[5mC]*eT*d[5mC]*dT*dA*dA*dA*d[5mC]*dA*dG*d[5mC]*dA*eT*eG*eA*eA*eA) [compound 771376] | 17
